For one test, the system named is H358 cells. Put plainly: Inhibition of H358 cell proliferation (CellTiter-Glo 3D, 7 days). The conditions noted are these: Homo sapiens, 168 h, NCI-H358, 7 days, read-out: IC50 (nM), inhibitory activity on H358 cell proliferation. Format: cell-based. As to the method: • (a) The cells were thawed in T75 cell culture flasks:
• (b) When 80-90% cell confluence was achieved, the cells were passaged.
The diluted test compounds were added to a 384-well cell culture plate using a nanoliter pipetting system, and duplicate wells were set. An equal volume of medium was added to the positive control group; an equal volume of DMSO was added to the negative control group. The plate was centrifuged at 1000 rpm at room temperature for 1 min.
The cells were inoculated into a) 384-well culture plate, an equal volume of cells was added to the negative control group, and only an equal volume of medium was added to the positive control group. The plate was centrifuged at 1000 rpm at room temperature for 1 min. The final concentration of DMSO in the final compounds was 0.5%. The plate was incubated in a thermostatic incubator at 37° C. with 5% CO2 for 7 days.
CellTiter-Glo® 3D was added to b) 384-well cell culture plate at 20 μL/well. The plate was shaken at 320 rpm in the dark for 20 min, and incubated at room temperature in the dark for 2 h. The luminescence values were read using an Envision multi-mode microplate reader.
The inhibition rates of the compounds at different concentrations were calculated in Excel, and then inhibition curves were plotted and relevant parameters including minimum inhibition rate, maximum inhibition rate and IC50 were calculated using GraphPad Prism software.

The next test deals with MIA PaCa-2 tumor cells. Put plainly: Anti-tumor pharmacodynamic evaluation, MIA PaCa-2 subcutaneous xenograft. The test is classed as in vivo. Conditions: MIA PaCa-2 in nude mice. As for the experimental part:
100 μL of a suspension containing 5×10^6 MIA PaCa-2 tumor cells was subcutaneously inoculated into the right posterior abdomens of nude mice. The health of the mice was monitored daily, and measurements were started when tumors grew to be palpable. The tumor volume was calculated as follows: 0.5×L×W^2, where L and W represent the length and width of the tumor, respectively. When the tumors grew to about 100 mm^3, the mice were randomized into groups. The mice were intragastrically administered a corresponding dose (50 mg/kg) of compound suspension in CMC-Na twice daily, and their general states were monitored at the same time. The tumors were measured 3 times a week, and the body weight was measured twice a week.

Test [1] concerns the target T1, binding of KRAS^G12C to SOS1 (Homo sapiens, UniProt Q07889).
T1 construct: Tag1 (unspecified)
T1 sequence (Q07889 1-1333): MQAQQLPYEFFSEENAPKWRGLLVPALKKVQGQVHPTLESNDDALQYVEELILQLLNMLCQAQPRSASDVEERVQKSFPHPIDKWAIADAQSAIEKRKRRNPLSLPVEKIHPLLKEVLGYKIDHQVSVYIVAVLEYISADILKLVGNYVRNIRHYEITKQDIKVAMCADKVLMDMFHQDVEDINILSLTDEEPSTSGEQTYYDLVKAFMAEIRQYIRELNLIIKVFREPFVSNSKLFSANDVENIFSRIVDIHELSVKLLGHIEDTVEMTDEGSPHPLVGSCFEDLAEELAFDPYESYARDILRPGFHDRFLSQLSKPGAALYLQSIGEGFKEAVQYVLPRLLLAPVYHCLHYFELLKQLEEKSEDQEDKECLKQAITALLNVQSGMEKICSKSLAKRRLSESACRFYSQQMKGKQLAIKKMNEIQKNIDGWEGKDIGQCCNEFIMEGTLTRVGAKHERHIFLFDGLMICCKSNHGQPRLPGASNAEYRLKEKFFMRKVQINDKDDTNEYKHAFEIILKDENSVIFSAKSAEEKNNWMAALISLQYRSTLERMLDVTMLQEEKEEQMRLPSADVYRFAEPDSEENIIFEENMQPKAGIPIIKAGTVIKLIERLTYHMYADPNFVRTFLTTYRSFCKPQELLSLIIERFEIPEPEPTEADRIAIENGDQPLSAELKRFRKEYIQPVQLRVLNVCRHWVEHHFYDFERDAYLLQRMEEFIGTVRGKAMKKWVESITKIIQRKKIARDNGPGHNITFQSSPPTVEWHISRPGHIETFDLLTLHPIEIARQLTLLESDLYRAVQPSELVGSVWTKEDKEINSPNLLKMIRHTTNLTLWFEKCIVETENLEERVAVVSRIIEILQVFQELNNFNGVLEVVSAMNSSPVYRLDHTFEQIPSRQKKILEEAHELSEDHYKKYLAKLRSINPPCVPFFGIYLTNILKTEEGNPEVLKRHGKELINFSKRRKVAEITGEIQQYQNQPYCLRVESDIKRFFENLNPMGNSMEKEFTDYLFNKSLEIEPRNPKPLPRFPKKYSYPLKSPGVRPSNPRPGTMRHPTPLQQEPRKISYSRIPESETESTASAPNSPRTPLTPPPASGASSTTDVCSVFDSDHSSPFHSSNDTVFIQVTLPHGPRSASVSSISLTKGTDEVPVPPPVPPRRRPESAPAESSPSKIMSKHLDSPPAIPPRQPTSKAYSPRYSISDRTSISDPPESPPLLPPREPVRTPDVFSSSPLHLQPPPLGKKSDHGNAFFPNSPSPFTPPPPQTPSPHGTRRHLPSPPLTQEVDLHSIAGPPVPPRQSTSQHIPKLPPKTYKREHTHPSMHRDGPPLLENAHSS
Put plainly: Inhibition of the binding of KRAS^G12C to SOS1. Conditions: Tag1-SOS1 / Tag2-KRAS^G12C, 2 h incubation at room temperature; read-out: IC50 (nM), inhibitory activity on the binding of KRAS^G12C to SOS1. An outline of the steps:
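Tag1-SOS1 and Tag2-KRAS^G12C mixed with serially diluted compound (final 0.25% DMSO), then anti-Tag1-Tb3+ and anti-Tag2-XL665 added for 2 h at room temperature. IC50 from curve fit of the TR-FRET signal.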

The mark [2] stands for this setting: Day 21, 50 mg/kg intragastric twice daily.

Each structure is given as a SMILES string.

The values below come from US20240336606A1 (Suzhou Zelgen Biopharmaceuticals Co., Ltd., priority 2020, published 2024).

Regarding `COCCOc1cc2c(N[C@H](C)c3cccc(C(F)(F)C(C)(C)O)c3F)nc(C)nc2cc1OC` [Example 72, (R)-1,1-Difluoro-1-(2-fluoro-3-(1-((7-methoxy-6-(2-methoxyethoxy)-2-methylquinazolin-4-yl)amino)ethyl)phenyl)-2-methylpropan-2-ol], the IC50 in the test with H358 cells came to 16.6 nM. Besides, the “TV (mm^3) (tumor volume) Day 0” value in the test with MIA PaCa-2 tumor cells (Day 0 (at grouping), 50 mg/kg intragastric twice daily) stood at 103 mm^3. In addition, in the test on MIA PaCa-2 tumor cells (setting [2]), the “% TGI (tumor growth inhibition)” value came out at 84.9% and the “TV (mm^3) (tumor volume) Day 21” value is 175 mm^3. Also, the IC50 in test [1] came out at 3.2 nM.
